Source: patent publication US20120220581A1, “IMIDAZO[1,2-b]PYRIDAZINE DERIVATIVES AND THEIR USE AS PDE10 INHIBITORS” (Janssen-Cilag, S.A., priority 2009, published 2012)
Read-outs that look alike come from different tables or passages of the source.

Experiments:
[1] = biological target: T1, Rat recombinant PDE10A (rPDE10A2) (Rattus norvegicus, UniProt Q9QYJ6); assay: In vitro assay PDE10A (SPA, 3H-cAMP); assay type: biochemical
T1 construct: inferred from the Ni metal chelate purification; made in house; host or cells: Sf9 insect cells (baculovirus)
T1 sequence (Q9QYJ6 1-794): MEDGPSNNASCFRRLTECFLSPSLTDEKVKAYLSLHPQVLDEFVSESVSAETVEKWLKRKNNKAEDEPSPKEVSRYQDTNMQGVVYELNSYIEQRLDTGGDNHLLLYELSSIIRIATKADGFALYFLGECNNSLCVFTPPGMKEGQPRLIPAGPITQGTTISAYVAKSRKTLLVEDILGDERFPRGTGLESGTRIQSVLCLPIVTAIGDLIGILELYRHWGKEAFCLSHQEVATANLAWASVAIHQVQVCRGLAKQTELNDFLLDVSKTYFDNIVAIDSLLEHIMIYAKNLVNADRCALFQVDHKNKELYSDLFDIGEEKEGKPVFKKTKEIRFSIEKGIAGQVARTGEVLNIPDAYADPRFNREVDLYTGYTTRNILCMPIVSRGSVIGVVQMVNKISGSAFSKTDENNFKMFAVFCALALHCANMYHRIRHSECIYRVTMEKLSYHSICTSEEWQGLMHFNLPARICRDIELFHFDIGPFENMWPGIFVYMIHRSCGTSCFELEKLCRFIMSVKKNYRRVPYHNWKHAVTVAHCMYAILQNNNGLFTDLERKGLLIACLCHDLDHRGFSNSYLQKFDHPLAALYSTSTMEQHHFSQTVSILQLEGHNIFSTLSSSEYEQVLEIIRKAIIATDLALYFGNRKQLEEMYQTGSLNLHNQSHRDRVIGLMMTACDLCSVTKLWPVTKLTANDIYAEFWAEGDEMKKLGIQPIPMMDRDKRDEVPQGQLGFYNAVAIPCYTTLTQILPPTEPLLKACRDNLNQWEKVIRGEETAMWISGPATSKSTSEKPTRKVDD
Outline: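 Rat PDE10A2 expressed in Sf9 cells and Ni-purified; incubated with 60 nM cAMP plus 0.008 μCi 3H-cAMP in 50 mM Tris pH 7.8, 8.3 mM MgCl2, 1.7 mM EGTA for 60 min at room temperature. Product quantified by scintillation proximity counting; final DMSO 1%.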

[2] = test system: female hooded-Lister rats; assay: Object recognition test (NOR) after sub-chronic PCP; assay type: in vivo, rat; details: Day 1, 3 min retention trial, mean
[3] = biological target: other members of the PDE family (Homo sapiens, UniProt O60658); assay: In vitro PDE selectivity assay (SPA), other members of the PDE family (protocols in Table A); assay type: biochemical; details: hPDE8A1; read-out: PDE 8A1 (expressed as pIC50) (converted)
Outline: (§1)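 Inhibition of each PDE isoform was measured by scintillation proximity assay with ³H-cyclic nucleotide substrate, using incubation buffer, substrate concentration, incubation time and stop solution adapted per isoform. Compounds were tested in dose-response against 1% DMSO controls and enzyme-free blanks. IC50 came from a least-squares fit of blank-subtracted % of control versus concentration.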

[4] = biological target: other members of the PDE family (Homo sapiens, UniProt P16499+P35913); assay: as above; assay type: biochemical; details: hPDE6AB; read-out: PDE 6AB (expressed as pIC50) (converted)
Outline: as §1

Sequence of other members of the PDE family (Homo sapiens, UniProt O60658) (O60658 whole entry, canonical isoform): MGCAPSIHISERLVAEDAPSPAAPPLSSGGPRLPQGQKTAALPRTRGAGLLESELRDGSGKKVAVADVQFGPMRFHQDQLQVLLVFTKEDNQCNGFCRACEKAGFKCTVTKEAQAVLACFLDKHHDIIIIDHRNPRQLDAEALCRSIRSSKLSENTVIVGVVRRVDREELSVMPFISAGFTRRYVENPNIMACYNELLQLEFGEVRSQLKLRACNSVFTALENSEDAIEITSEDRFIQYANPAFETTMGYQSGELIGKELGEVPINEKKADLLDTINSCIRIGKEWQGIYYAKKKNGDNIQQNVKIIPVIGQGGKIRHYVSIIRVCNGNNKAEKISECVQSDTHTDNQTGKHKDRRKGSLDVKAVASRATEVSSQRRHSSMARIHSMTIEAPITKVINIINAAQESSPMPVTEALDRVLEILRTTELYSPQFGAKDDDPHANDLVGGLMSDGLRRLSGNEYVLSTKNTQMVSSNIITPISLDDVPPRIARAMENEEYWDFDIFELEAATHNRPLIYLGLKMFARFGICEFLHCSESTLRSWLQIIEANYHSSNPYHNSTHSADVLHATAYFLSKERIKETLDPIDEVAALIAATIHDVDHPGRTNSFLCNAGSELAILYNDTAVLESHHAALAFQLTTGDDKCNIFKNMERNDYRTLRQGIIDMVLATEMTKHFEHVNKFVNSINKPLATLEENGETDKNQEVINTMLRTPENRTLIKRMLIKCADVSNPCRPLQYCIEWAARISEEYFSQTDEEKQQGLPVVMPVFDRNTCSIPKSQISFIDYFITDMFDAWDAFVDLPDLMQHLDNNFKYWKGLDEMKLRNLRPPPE
Sequence of other members of the PDE family (Homo sapiens, UniProt P16499+P35913) (P16499 whole entry): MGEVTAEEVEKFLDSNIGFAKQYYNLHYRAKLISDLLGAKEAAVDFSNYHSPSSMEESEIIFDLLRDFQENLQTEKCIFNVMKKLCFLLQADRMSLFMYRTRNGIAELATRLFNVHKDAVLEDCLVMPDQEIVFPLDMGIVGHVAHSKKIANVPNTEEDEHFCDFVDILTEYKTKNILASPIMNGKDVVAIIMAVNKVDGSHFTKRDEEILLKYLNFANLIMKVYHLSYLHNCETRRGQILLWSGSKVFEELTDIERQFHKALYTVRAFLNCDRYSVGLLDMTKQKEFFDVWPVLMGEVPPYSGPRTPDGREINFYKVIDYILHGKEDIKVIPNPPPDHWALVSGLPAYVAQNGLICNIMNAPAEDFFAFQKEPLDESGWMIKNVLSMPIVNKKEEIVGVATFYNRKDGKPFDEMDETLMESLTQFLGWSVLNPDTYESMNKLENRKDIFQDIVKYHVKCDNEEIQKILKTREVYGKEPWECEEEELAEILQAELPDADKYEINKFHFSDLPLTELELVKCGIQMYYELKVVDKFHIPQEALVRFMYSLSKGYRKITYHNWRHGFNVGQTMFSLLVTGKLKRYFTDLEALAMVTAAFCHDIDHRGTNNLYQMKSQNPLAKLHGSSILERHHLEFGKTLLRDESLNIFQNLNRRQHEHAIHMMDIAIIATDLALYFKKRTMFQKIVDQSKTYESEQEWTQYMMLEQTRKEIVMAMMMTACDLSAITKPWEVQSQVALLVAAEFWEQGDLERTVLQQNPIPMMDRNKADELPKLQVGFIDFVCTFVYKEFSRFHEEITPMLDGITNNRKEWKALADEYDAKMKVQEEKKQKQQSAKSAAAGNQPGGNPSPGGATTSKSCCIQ
Sequence of other members of the PDE family (Homo sapiens, UniProt P16499+P35913) (P35913 whole entry): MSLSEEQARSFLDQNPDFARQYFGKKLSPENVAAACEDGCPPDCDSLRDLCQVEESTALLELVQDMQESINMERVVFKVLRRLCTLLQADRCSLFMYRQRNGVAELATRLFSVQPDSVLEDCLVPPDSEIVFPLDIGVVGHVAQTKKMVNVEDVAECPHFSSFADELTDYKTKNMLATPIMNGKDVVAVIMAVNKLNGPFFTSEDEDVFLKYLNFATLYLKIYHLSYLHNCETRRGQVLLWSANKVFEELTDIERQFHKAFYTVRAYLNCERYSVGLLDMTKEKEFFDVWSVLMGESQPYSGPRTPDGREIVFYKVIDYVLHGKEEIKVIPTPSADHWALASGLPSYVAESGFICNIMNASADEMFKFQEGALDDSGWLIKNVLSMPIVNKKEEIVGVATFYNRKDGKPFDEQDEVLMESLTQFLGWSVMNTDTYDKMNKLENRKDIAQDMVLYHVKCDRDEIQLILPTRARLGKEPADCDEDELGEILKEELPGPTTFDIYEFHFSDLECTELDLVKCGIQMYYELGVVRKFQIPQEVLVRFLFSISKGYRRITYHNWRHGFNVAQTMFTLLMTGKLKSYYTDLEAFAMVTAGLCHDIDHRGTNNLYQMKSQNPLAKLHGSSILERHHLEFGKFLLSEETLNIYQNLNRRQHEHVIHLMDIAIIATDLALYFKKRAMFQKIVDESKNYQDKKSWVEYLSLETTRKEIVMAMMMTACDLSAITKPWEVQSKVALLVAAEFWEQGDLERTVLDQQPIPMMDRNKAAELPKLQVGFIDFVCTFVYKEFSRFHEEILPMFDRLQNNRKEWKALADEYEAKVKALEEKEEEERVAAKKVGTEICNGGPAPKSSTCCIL

SMILES	IC50 ([1]; Table 4 in vitro selectivity, read-out: PDE 10A2 (expressed as pIC50) (converted))	IC50 ([1]; pIC50 corresponds to the −log IC50 expressed in mol/L, read-out: PDE10A2 pIC50 (converted))	T2(A) exploration time of familiar object, retention trial ([2]; PCP + 0.3 mg/kg p.o.)	T2(B) exploration time of novel object, retention trial ([2]; PCP + 0.3 mg/kg p.o.)	T2(A) exploration time of familiar object, retention trial ([2]; PCP + 1 mg/kg p.o.)	T2(B) exploration time of novel object, retention trial ([2]; PCP + 1 mg/kg p.o.)	IC50 [3]	IC50 [4]
COCCOc1ccc(-c2c(C)nc3c(-c4ccncc4)ccnn23)cn1 [compound 21, 3-[6-(2-methoxyethoxy)-3-pyridinyl]-2-methyl-8-(4-pyridinyl)-imidazo[1,2-b]pyridazine]	0.102 µM	0.102 µM	–	–	–	–	–	–
COCCc1ccc(-c2c(C)nc3c(N4CCOCC4)ccnn23)cn1 [compound 1, 3-[6-(2-methoxyethyl)-3-pyridinyl]-2-methyl-8-(4-morpholinyl)-imidazo[1,2-b]pyridazine]	–	–	11.8 s	17.6 s	10.7 s	22.3 s	77.6 µM	85.1 µM
